Key:
Glutamate NMDA receptor = test: Displacement of [3H]CGP-39653 from rat NMDA receptor in rat brain membranes
[1] = Displacement of [3H]kainic acid from rat KA receptor in rat brain membranes
[2] = Displacement of [3H]AMPA from rat AMPA receptor in rat brain membranes
[3] = biological target: Metabotropic glutamate receptor 4 (Homo sapiens, UniProt Q14833); test: Displacement of [3H]LAP4 from mGluR4 receptor expressed in BHK cells; assay type: cell-based
[4] = biological target: Metabotropic glutamate receptor 1 (Homo sapiens, UniProt Q13255); test: Displacement of [3H]quisqualate from mGluR1 receptor expressed in BHK cells; assay type: cell-based
[5] = biological target: Metabotropic glutamate receptor 2 (Homo sapiens, UniProt Q14416); test: Displacement of [3H]LY341495 from mGluR2 receptor expressed in BHK cells; assay type: cell-based
[6] = biological target: Metabotropic glutamate receptor 5 (Homo sapiens, UniProt P41594); test: Binding affinity to mGluR5 receptor expressed in BHK cells; assay type: cell-based
Chain of Metabotropic glutamate receptor 5 (P41594 whole entry): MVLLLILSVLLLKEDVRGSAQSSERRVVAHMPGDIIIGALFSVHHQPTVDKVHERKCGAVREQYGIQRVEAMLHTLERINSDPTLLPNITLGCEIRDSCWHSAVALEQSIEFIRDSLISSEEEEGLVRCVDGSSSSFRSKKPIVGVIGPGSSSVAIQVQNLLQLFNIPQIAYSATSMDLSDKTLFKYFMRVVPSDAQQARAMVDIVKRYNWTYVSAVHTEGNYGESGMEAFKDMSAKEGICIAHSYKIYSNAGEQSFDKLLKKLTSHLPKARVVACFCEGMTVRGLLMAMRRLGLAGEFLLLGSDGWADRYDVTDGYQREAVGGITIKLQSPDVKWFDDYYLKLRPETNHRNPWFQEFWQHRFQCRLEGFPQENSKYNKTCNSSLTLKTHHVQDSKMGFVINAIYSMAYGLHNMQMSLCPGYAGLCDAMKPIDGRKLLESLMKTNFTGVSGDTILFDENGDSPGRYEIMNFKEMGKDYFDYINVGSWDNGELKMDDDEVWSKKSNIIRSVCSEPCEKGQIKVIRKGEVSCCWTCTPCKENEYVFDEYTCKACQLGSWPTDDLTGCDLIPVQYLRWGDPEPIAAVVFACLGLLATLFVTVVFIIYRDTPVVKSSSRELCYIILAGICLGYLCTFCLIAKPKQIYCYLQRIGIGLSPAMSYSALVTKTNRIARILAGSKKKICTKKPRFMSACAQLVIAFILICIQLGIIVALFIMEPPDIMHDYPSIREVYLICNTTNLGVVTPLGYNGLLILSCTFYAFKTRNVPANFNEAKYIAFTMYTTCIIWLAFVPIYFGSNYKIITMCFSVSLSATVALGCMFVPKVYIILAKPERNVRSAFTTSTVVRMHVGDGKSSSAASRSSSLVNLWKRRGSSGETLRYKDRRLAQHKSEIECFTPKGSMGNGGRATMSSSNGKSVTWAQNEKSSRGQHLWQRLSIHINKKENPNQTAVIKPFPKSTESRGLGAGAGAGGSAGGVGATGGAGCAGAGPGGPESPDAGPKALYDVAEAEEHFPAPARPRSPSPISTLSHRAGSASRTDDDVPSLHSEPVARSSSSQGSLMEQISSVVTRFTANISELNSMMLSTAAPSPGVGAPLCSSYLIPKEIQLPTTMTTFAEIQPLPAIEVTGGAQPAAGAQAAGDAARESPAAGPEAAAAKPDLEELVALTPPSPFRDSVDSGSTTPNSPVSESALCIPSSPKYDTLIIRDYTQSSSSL

Chain of Metabotropic glutamate receptor 4 (Q14833 whole entry): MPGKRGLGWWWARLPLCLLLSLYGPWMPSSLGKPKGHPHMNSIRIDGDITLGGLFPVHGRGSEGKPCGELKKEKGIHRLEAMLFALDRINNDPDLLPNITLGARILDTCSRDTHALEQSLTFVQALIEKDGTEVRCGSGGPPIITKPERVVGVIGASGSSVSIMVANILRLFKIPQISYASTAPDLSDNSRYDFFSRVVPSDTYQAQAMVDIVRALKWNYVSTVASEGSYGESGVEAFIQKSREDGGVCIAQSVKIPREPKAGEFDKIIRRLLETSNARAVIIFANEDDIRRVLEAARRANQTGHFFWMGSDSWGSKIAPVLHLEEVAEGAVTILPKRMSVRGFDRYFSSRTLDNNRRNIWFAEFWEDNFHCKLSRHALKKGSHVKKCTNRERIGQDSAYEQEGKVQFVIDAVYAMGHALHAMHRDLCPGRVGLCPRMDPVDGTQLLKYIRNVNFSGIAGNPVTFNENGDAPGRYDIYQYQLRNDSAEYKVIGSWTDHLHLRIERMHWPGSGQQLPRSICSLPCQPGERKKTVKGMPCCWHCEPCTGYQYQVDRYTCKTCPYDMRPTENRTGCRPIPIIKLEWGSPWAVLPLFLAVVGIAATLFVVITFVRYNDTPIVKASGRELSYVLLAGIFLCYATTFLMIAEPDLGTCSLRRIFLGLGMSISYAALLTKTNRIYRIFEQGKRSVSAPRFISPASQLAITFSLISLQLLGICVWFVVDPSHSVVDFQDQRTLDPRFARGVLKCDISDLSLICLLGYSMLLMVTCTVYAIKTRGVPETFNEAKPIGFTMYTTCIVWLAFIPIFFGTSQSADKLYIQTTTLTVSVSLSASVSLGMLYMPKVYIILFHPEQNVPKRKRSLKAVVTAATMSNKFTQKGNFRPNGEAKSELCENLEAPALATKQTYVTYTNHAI
Chain of Metabotropic glutamate receptor 2 (Q14416 whole entry): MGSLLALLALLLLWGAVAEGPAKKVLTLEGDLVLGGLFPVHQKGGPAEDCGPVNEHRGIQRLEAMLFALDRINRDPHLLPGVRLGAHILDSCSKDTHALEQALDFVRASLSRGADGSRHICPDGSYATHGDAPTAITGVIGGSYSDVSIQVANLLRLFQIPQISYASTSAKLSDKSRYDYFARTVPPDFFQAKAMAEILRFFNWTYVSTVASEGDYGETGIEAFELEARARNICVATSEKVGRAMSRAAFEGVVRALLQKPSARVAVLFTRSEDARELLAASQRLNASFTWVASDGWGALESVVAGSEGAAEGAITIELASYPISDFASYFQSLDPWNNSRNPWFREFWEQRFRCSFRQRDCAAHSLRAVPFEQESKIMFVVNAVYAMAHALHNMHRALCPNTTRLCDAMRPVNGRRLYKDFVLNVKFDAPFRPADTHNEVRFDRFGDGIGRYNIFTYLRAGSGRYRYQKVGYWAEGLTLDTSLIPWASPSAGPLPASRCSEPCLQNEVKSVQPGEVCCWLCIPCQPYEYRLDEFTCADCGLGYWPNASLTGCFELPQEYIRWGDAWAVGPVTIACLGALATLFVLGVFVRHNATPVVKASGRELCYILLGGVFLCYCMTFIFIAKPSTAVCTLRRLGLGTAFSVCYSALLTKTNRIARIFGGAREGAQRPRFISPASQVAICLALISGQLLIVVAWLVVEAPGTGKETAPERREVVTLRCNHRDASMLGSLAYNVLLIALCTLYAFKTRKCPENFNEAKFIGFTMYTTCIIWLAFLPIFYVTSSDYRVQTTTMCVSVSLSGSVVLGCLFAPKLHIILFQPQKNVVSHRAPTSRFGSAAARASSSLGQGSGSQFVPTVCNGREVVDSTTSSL
Chain of Metabotropic glutamate receptor 1 (Q13255 whole entry): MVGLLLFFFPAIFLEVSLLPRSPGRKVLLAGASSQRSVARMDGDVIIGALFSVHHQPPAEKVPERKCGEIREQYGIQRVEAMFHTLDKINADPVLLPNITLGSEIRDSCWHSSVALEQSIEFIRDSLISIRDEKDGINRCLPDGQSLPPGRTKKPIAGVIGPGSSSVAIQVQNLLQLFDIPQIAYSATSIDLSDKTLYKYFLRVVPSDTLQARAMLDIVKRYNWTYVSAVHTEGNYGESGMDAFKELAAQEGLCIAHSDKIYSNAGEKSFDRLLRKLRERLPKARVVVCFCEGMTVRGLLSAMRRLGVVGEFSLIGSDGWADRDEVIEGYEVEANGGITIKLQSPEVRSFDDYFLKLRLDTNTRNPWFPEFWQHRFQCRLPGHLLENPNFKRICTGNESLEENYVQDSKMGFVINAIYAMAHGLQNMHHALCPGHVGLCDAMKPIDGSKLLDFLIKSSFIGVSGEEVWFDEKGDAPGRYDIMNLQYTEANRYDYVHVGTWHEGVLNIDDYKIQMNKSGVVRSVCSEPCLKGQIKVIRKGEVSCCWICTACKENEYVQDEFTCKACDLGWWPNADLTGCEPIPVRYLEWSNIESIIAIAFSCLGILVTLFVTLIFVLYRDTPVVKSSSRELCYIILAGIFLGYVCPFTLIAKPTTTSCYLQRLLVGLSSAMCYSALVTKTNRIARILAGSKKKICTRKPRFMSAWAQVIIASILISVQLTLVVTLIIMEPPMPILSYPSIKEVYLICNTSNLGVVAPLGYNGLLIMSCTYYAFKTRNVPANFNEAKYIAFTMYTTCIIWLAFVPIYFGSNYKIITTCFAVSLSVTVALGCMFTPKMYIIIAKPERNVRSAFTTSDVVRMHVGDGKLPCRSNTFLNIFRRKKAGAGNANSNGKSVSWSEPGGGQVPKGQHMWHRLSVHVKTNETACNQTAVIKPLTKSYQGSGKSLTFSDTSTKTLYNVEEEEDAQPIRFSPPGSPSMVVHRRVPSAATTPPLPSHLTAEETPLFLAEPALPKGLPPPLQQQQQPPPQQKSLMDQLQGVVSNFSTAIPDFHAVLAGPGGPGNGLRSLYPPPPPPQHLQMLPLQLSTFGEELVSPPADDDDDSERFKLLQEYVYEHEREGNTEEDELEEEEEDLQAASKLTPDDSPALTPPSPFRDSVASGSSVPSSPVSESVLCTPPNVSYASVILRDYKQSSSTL

SMILES | Ki (Glutamate NMDA receptor) | Ki [1] | Ki [2] | Ki [3] | Ki [4] | Ki [5] | Ki [6]
N[C@H](C(=O)O)[C@@H]1C[C@@H]1C(=O)O | 0.009 µM | – | – | – | – | – | –
N[C@@H](C(=O)O)[C@H]1C[C@@H]1S(=O)(=O)O | 22 µM | 34 µM | 96 µM | > 300 µM | > 300 µM | > 300 µM | > 300 µM
N[C@@H](C(=O)O)[C@H]1C[C@H]1S(=O)(=O)O | 61 µM | 64 µM | 72 µM | > 300 µM | > 300 µM | > 300 µM | 55 µM
N[C@H](C(=O)O)[C@H]1C[C@@H]1S(=O)(=O)O | > 300 µM | > 300 µM | > 300 µM | > 300 µM | 34 µM | 235 µM | 49 µM
N[C@H](C(=O)O)[C@H]1C[C@H]1S(=O)(=O)O | > 300 µM | > 300 µM | > 300 µM | > 300 µM | > 300 µM | > 300 µM | > 300 µM
N[C@@H](C(=O)O)[C@@H]1C[C@H]1S(=O)(=O)O | 150 µM | 71 µM | 72 µM | > 300 µM | 254 µM | > 300 µM | 67 µM
N[C@@H](C(=O)O)[C@@H]1C[C@@H]1S(=O)(=O)O | > 300 µM | 35 µM | > 300 µM | > 300 µM | > 300 µM | > 300 µM | > 300 µM
N[C@@H](CCS(=O)(=O)O)C(=O)O | 2.7 µM | 9.9 µM | 2.4 µM | 53 µM | 87 µM | > 300 µM | 54 µM
N[C@H](C(=O)O)[C@@H]1C[C@@H]1S(=O)(=O)O | 19 µM | 3.3 µM | 0.1 µM | > 300 µM | > 300 µM | > 300 µM | > 300 µM
N[C@H](C(=O)O)[C@@H]1C[C@H]1S(=O)(=O)O | > 300 µM | 34 µM | > 300 µM | > 300 µM | 77 µM | > 300 µM | 81 µM

Reference: ChEMBL document CHEMBL1148790, “Synthesis, molecular modeling studies, and preliminary pharmacological characterization of all possible 2-(2'-sulfonocyclopropyl)glycine stereoisomers as conformationally constrained L-homocysteic acid analogs” (J Med Chem, 2007)
